Measured values as given in US7589078B2, “Anti-viral nucleoside analogs and methods for treating viral infections, especially HIV infections” (Yale University, priority 2003, dated 2009).
Read-outs that look alike come from different tables or passages of the source.

Legend:
[1] = tested on: mtDNA content of CEM cells; assay: Mitochondrial DNA content in CEM cells (Southern blot); format: cell-based; settings: for IC50: four days, read-out: Mitochondrial DNA Content ID50
Protocol: Mitochondrial DNA: The effect of nucleoside analogs on mtDNA content was assessed as described previously (2). […] Cells treated with drugs at various concentrations either as single agents or in combination were grown for four days. Cells were then harvested, treated with proteinase K and DNase free RNase. Extracts were applied to nylon membranes and hybridized with an mtDNA probe. After stripping the membrane the load was normalized by rehybridizing the membrane with an Alu probe. Blots were quantitated with a Molecular Dynamics personal densitometer SI with ImageQuaNT analysis software.

HIV-1 strain IIIB [2] = assay: Antiviral activity in MT-2 cells infected with HIV-1 strain IIIB (MTT); format: cell-based
Protocol: Determination of antiviral activity: Compounds were tested in MT-2 cells infected with HIV-1 strain IIIB essentially as described previously (31). […]. Calculations of the percent protection and isobologram combination studies are described (12).

CEM cells = assay: Cellular toxicity in CEM cells (cell counts); settings: for IC50: read-out: Cellular ID50
Protocol: The basic procedures are similar. The cells are seeded a low concentration, then serial dilutions of test compound are added. […] After 48 to 96 h incubation at 37° C. in a 5% CO2 humidified incubator the assay is ended. The drug treated samples are compared to the untreated controls. This is accomplished in suspension cell lines by counting cell numbers either with a hemocytometer or by using a Coulter Counter.
The numbers in parentheses represent the mean and standard deviations of percentage of untreated CEM control cells at the concentration indicated.

H-9 cells = assay: Toxicity in H-9 cells alone and in combination (Coulter Counter); format: cell-based; settings: H-9 cells, 48 h
Excerpt: (§1) The basic procedures are similar.

thymidine kinase (TK-1) [3] = molecular target: T1, thymidine kinase (TK-1) (Homo sapiens, UniProt P04183); assay: Monophosphorylation of analogs by thymidine kinase; format: biochemical; set-up: phosphorylated by thymidine kinase (TK-1) from CEM cells; endogenous in cells; settings: for Relative Vmax: 250 μM dThd or analog, 2.4 mM ATP, 0.07 unit TK-1, 37° C., 285 min, dThd = 100
T1 sequence (P04183 1-234): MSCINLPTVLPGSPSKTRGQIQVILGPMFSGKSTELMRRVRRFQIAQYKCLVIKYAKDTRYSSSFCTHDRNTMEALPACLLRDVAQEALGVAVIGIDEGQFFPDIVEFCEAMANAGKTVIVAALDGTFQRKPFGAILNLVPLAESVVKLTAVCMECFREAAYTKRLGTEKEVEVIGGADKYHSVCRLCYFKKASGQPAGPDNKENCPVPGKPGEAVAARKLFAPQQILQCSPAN
Protocol: Monophosphorylation of Analogs by Thymidine Kinase: All the analogs were tested for their ability to be phosphorylated by thymidine kinase (TK-1) from CEM cells. This enzyme was purified by an affinity column technique developed in this laboratory (7). […] At the end of the incubation time the reaction was stopped by the addition of 3 parts cold HPLC grade methanol. After incubating on ice for at least 10 min. the methanol insoluble material is precipitated by centrifugation and the methanol soluble supernatants were placed into clean microfuge tubes. These samples were brought to dryness in a Speedvac Centrifuge. The samples were dissolved in water and separated on a Shimatzu HPLC model SCL 10Avp using a gradient of water to 300 mM potassium phosphate and a Whatman 10/25 particle SAX column. Km and relative Vmax studies were done in a similar fashion, using the same mixture and different amounts of substrate and enzyme.

MT-2 cells = assay: Cellular toxicity, MT-2 cell growth; format: cell-based; settings: MT-2 cells; read-out: ID50: concentration required to inhibit MT-2 cell growth by 50%
Excerpt: as §1

thymidine kinase (TK-1) [4] = molecular target: T1, thymidine kinase (TK-1); assay: Thymidine kinase assay with added nucleoside ([14C]-dThd to dTMP); settings: [14C]-dThd 25 μM, added nucleoside 250 μM; compared to reactions with no additions
Protocol: After two additional washes in ethanol, the discs were dried and placed in scintillation vials that contained 5 ml SafeScint Scintillation Cocktail (American Bioanalytical, Natick, Mass.). The amount of radioactivity, which represents the amount of dTMP formed, was quantitated in a Beckman LS5000TD Scintillation Counter (Beckman Instruments Inc., Palo Alto, Calif.).

HIV-1 strain IIIB [5] = settings: MT-2 cells; EC50 reported previously (17); read-out: EC50: effective concentration required to achieve 50% protection from HIV in MT-2 cells; cited from earlier work
[6] = molecular target: T2, thymidine phosphorylase (TP) (Homo sapiens, UniProt P19971); assay: Thymidine phosphorylase assay; format: in vitro ADME; settings: partially purified TP from human liver, 100 μM nucleoside, 37° C., FIG. 11
T2 construct: using a partially purified prepartion of human liver extract (28) as a source of the thymidine phosphorylase (TP); from tissue; host or cells: human liver extract, partially purified
T2 sequence (P19971 11-482): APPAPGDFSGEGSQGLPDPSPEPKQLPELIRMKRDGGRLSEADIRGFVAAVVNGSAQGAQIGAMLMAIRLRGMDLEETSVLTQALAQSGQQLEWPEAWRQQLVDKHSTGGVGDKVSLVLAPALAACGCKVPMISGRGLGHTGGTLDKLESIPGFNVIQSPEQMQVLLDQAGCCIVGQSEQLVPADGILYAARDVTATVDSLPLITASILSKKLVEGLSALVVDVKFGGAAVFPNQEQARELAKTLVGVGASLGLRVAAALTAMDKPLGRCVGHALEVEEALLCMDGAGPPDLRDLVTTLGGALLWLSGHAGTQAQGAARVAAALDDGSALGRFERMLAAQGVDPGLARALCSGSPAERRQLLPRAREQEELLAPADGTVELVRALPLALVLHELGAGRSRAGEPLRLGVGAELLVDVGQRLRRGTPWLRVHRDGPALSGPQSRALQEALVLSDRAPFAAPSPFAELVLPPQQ
Protocol: Thymidine Phosphorylase Assays: Nucleoside analogs (100 μM) were incubated in 75 mM potassium phosphate buffer pH 7.3 at 37° C. using a partially purified prepartion of human liver extract (28) as a source of the thymidine phosphorylase (TP). After incubation, the reaction was stopped by the addition of trichloroacetic acid to a final concentration of 15%. The samples were then incubated on ice. After the acid insoluble components were removed by centrifugation, the supernatant was neutralized by two extractions with one half volume of trioctylamine/freon (45:55). The aqueous supernatants were examined by HPLC using the Beckman ODS column method, as described in Acid Stability Studies.

[7] = Human immunodeficiency virus 1, MT2, MT-2/HIV IIIB system, FIG. 10, read-out: EC50 for single agents (isobologram study)
[8] = MT-2 cells, HIV-1 IIIB, read-out: EC50: effective concentration required to achieve 50% protection from HIV in MT-2 cells
[9] = CEM cells, four day cell growth, cell counts vs untreated controls

SMILES: Nc1ccn([C@@H]2CS[C@H](CO)O2)c(=O)n1 [3TC, β-L-2′,3′-dideoxy-3′-thiacytidine, reference compound]
- IC50 ([1]; Homo sapiens, CCRF-CEM, 96 h): > 200 µM
- Mitochondrial DNA content, percentage of untreated CEM control cells ([1]; at 200 μM): 114 ± 2%
- EC50 (HIV-1 strain IIIB [2]; [7]): 1 µM
- Cell count, percentage of untreated CEM control cells (CEM cells; CEM cells, at 200 μM): 77 ± 28%
- IC50 (CEM cells; Homo sapiens, CCRF-CEM, 96 h): > 200 µM
- Percent of Untreated Controls (H-9 cells; 5 μM 3TC alone): 99 ± 3%
- Percent of Untreated Controls (H-9 cells; 20 μM 3TC alone): 94 ± 3%
- Percent of Untreated Controls (H-9 cells; 100 μM 3TC alone): 108 ± 12%

SMILES: C=CC[C@@]1(CO)C=C[C@H](n2cc(C)c(=O)[nH]c2=O)O1 [4′-allyl D4T]
- Relative Vmax (thymidine kinase (TK-1) [3]): 0.4 ± 0.2
- IC50 (MT-2 cells): > 100 µM
- EC50 (HIV-1 strain IIIB [2]; [8]): > 100 µM
- IC50 (CEM cells; [9]): > 100 µM
- Percent of Activity (thymidine kinase (TK-1) [4]): 110.8 ± 9.0%

SMILES: Cc1cn([C@H]2C=C[C@@](C#N)(CO)O2)c(=O)[nH]c1=O [4′-cyano D4T]
- Relative Vmax (thymidine kinase (TK-1) [3]): 1.1 ± 0.2
- Mitochondrial DNA content, percentage of untreated CEM control cells ([1]; at 100 μM): 264 ± 23%
- IC50 [1]: > 100 µM
- IC50 (MT-2 cells): > 100 µM
- Anti-HIV activity compared with D4T (HIV-1 strain IIIB [2]; MT-2/IIIB anti HIV-1 system, FIG. 8): less active than D4T
- EC50 (HIV-1 strain IIIB [2]; [8]): 7 ± 2.6 µM
- Cell count, percentage of untreated CEM control cells (CEM cells; CEM cells, at 100 μM): 60 ± 1%
- IC50 (CEM cells; [9]): > 100 µM
- Percent of Activity (thymidine kinase (TK-1) [4]): 71.8 ± 8.2%

SMILES: Cc1cn([C@H]2C=C[C@@](C#CCl)(CO)O2)c(=O)[nH]c1=O [4′-ethynylchloro D4T]
- Relative Vmax (thymidine kinase (TK-1) [3]): 3.9 ± 1.0
- IC50 (MT-2 cells): 63.3 ± 20.8 µM
- EC50 (HIV-1 strain IIIB [2]; [8]): > 100 µM
- IC50 (CEM cells; [9]): 62.6 ± 10 µM
- Percent of Activity (thymidine kinase (TK-1) [4]): 53.2 ± 9.2%

SMILES: Cc1cn([C@H]2C=C[C@@](C)(CO)O2)c(=O)[nH]c1=O [4′-methyl D4T]
- Relative Vmax (thymidine kinase (TK-1) [3]): 1.6 ± 0.5
- Rate of conversion to the monophosphate form (thymidine kinase (TK-1) [3]; purified human TK-1): approximately 2% of dThd
- EC50 (HIV-1 strain IIIB [5]): > 100 µM
- IC50 (MT-2 cells): > 100 µM
- Cell count, percentage of untreated CEM control cells (CEM cells; CEM cells, at 100 μM): 114 ± 2%
- IC50 (CEM cells; [9]): > 100 µM
- Percent of Activity (thymidine kinase (TK-1) [4]): 103.8 ± 9.9%

SMILES: C=C[C@@]1(CO)C=C[C@H](n2cc(C)c(=O)[nH]c2=O)O1 [4′-vinyl D4T]
- Relative Vmax (thymidine kinase (TK-1) [3]): 1.8 ± 0.5
- Rate of conversion to the monophosphate form (thymidine kinase (TK-1) [3]; purified human TK-1): approximately 2% of dThd
- EC50 (HIV-1 strain IIIB [5]): > 100 µM
- IC50 (MT-2 cells): > 100 µM
- Cell count, percentage of untreated CEM control cells (CEM cells; CEM cells, at 100 μM): 78 ± 21%
- IC50 (CEM cells; [9]): > 100 µM
- Percent of Activity (thymidine kinase (TK-1) [4]): 99.5 ± 6.9%

SMILES: Cc1cn([C@H]2C[C@H](N=[N+]=[N-])[C@@H](CO)O2)c(=O)[nH]c1=O [AZT, 3′-Azido-3′-deoxythymidine, reference compound]
- Relative Vmax (thymidine kinase (TK-1) [3]): 55.5 ± 9.7
- Rate of phosphorylation by TK-1, in words (thymidine kinase (TK-1) [3]; purified human TK-1): half as fast as dThd
- Percent of Activity (thymidine kinase (TK-1) [4]): 5.4 ± 2.3%

SMILES: Nc1nc(=O)n([C@@H]2C=C[C@H](CO)O2)cc1F [LFd4C, β-L-2′,3′-dideoxy-2′,3′-didehydro-5-fluorocytidine, reference compound]
- EC50 (HIV-1 strain IIIB [2]; [7]): 0.18 µM
- Percent of Untreated Controls (H-9 cells; 5 μM LFd4C alone): 73 ± 9%
- Percent of Untreated Controls (H-9 cells; 10 μM LFd4C alone): 56 ± 4%

SMILES: Cc1cn([C@H]2C[C@H](O)[C@@H](CO)O2)c(=O)[nH]c1=O [dThd]
- Break down by thymidine phosphorylase [6]: broke down very quickly

SMILES: Nc1ccn([C@H]2CC[C@@H](CO)O2)c(=O)n1 [ddC, 2′,3′-dideoxycytidine, reference compound]
- IC50 ([1]; Homo sapiens, CCRF-CEM, 96 h): 0.15 ± 0.12 µM
- IC50 (CEM cells; Homo sapiens, CCRF-CEM, 96 h): 5.5 ± 1.8 µM
